Measurements: PubChem BioAssay (NCI)
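Briefly, cells in 96-well plates were exposed to five compound concentrations for 48 h, and endpoints were estimated by linear interpolation. GI50 marks 50% less growth. TGI marks complete inhibition of growth.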

How the values were obtained:
Assay in all cases: NCI tumour cell line growth inhibition, 48 h
RXF 393 renal = system: RXF 393 renal
786-0 renal = system: 786-0 renal
SR leukemia = system: SR leukemia
UACC-62 melanoma = system: UACC-62 melanoma
SW-620 colon = system: SW-620 colon
DU-145 prostate = system: DU-145 prostate
EKVX NSCLC = system: EKVX NSCLC
MDA-N = system: MDA-N
OVCAR-5 ovarian = system: OVCAR-5 ovarian
SNB-78 CNS = system: SNB-78 CNS
DLD-1 colon = system: DLD-1 colon

Compound | TGI (RXF 393 renal) | TGI (786-0 renal) [µM] | TGI (SR leukemia) | TGI (UACC-62 melanoma) | TGI (SW-620 colon) | TGI (DU-145 prostate) | TGI (EKVX NSCLC) | TGI (MDA-N) | TGI (OVCAR-5 ovarian) | GI50 (RXF 393 renal) | GI50 (SR leukemia) | GI50 (UACC-62 melanoma) | GI50 (SW-620 colon) | GI50 (DU-145 prostate) | GI50 (EKVX NSCLC) | GI50 (MDA-N) [µg/mL] | GI50 (OVCAR-5 ovarian) | TGI (SNB-78 CNS) [µM] | TGI (DLD-1 colon) [µM]
CC1(C(=O)O)C[C@](C)(C(=O)OCc2ccccc2)C[C@](C)(C(=O)OCc2ccccc2)C1 (some centres not stated) | 56.4 µM | > 100 | 83.7 µM | 45.4 µM | > 100 µM | > 100 µM | 75.7 µM | > 100 µM | > 100 µM | – | – | – | – | – | – | – | – | – | –
CC1C(=O)c2cc3c(cc2CCN(C)Cc2c1ccc1c2OCO1)OCO3 (configuration not stated) | 68.3 µg/mL | – | 40.9 µg/mL | > 75 µg/mL | > 75 µg/mL | > 75 µg/mL | > 75 µg/mL | > 75 µg/mL | > 75 µg/mL | 13.1 µg/mL | 13.3 µg/mL | 45.2 µg/mL | > 75 µg/mL | > 75 µg/mL | > 75 µg/mL | > 75 | > 75 µg/mL | – | –
Clc1ccc(Nc2nc(Nc3ccccc3)nc(Nc3ccc(-c4cc(-c5ccc(Cl)cc5)on4)cc3)n2)cc1 | 37.6 µM | – | > 100 µM | 72.4 µM | > 100 µM | 80.3 µM | 88.4 µM | – | 89.1 µM | 11.3 µM | 26 µM | 16.7 µM | 26.4 µM | 20.4 µM | 3.14 µM | – | 20.9 µM | – | –
O=C(Cc1csc2nc(-c3ccc(Cl)cc3)cn12)N/N=C/c1ccccc1O | 39.8 µM | – | > 100 µM | 38.9 µM | > 100 µM | > 100 µM | > 100 µM | – | > 100 µM | 2.69 µM | 0.603 µM | 3.42 µM | 6.81 µM | 2.72 µM | 3.26 µM | – | 38.8 µM | – | –
O=C1C2Cc3c(n(C(=O)c4ccccc4)c4ccccc34)CC2C(=O)N1c1ccc(Nc2ccc(N3C(=O)C4Cc5c(n(C(=O)c6ccccc6)c6ccccc56)CC4C3=O)cc2)cc1 (configuration not stated) | > 100 µM | > 100 | > 100 µM | > 100 µM | – | > 100 µM | > 100 µM | > 100 µM | > 100 µM | – | – | – | – | – | – | – | – | – | –
CC1=C[C@@H](C)C[C@]2(C)CC[C@H](O2)[C@]23CC[C@](CO)(C[C@H](O2)[C@@H]2O[C@@](C)(CC2=O)[C@@H](O)[C@H]2CC[C@@]4(CCC[C@@H](O4)[C@H](C)C(=O)O[C@H]4C[C@H]([C@]5(O)OCC[C@H](C)[C@@H]5O)O[C@H]4C=C1)O2)O3 | 0.0801 µM | – | > 10 µM | > 9.63 µM | > 10 µM | > 10 µM | – | > 10 µM | > 10 µM | – | – | – | – | – | – | – | – | – | –
COC(=O)c1cc(NC(=O)c2cc(NC(=O)Cc3c[nH]c4ccccc34)cn2C)cn1C | > 100 µM | > 100 | – | 60.8 µM | > 100 µM | > 100 µM | 74.3 µM | > 100 µM | > 100 µM | – | – | – | – | – | – | – | – | – | –
CN(C)C(=O)OC1=CC2CCC(C1)N2C (configuration not stated) | > 100 µM | > 100 | > 100 µM | > 100 µM | > 100 µM | > 100 µM | > 100 µM | > 100 µM | > 100 µM | – | – | – | – | – | – | – | – | – | –
COc1ccc(-n2c3c(c4cc(O)ccc42)Cc2ccccc2C3=O)cc1 | 9.38 µM | > 100 | > 100 µM | > 100 µM | > 100 µM | > 100 µM | – | > 100 µM | – | – | – | – | – | – | – | – | – | – | –
COc1ccc(-c2nn(-c3ccc(NC(=O)c4cc(Cl)cc(Cl)c4)cc3)cc2-c2ccncc2)cc1Cl | 1.23 µM | – | > 100 µM | > 100 µM | > 100 µM | > 100 µM | – | – | – | 0.362 µM | 2.72 µM | 5.27 µM | > 100 µM | > 100 µM | – | – | – | – | –
O=C(CC(c1ccccc1)C1C(=O)NC(=S)NC1=O)c1ccc([N+](=O)[O-])cc1 (configuration not stated) | – | > 100 | > 100 µM | > 100 µM | > 100 µM | > 100 µM | > 100 µM | > 100 µM | > 100 µM | – | – | – | – | – | – | – | – | – | –
O=C(/C=C1\N=C(c2ccccc2)N(c2nc3c(Cl)cc(Cl)cc3s2)C1=O)/C=C/c1ccccc1 | > 100 µM | > 100 | – | > 100 µM | > 100 µM | > 100 µM | > 100 µM | > 100 µM | > 100 µM | – | – | – | – | – | – | – | – | – | –
COc1cc(C2c3cc4c(cc3[C@@H](Nc3ccc(Oc5ccccc5)cc3)C3COC(=O)[C@H]23)OCO4)cc(OC)c1O (some centres not stated) | > 100 µM | – | – | 22.9 µM | > 100 µM | – | > 100 µM | – | > 100 µM | – | – | – | – | – | – | – | – | > 100 | > 100
O=C(Nc1ccc(-n2ccc3c(NC(=O)c4ccccc4)nccc32)cc1)Nc1cccc(C(F)(F)F)c1 | 7.64 µM | – | 4.28 µM | 20.4 µM | 18.9 µM | 14.8 µM | 22.1 µM | – | 22.2 µM | 2.24 µM | 1.49 µM | 7.36 µM | 4.96 µM | 4.2 µM | 5.73 µM | – | 8.72 µM | – | –
O=C1/C(=C/c2[nH]ncc2-c2ccc(Cl)cc2)C(=O)N(c2ccccc2)C1c1ccccc1 (configuration not stated) | 49.4 µM | 44.7 | 30 µM | 27.8 µM | 45.2 µM | 50.3 µM | 51.3 µM | 36.9 µM | – | – | – | – | – | – | – | – | – | – | –
